Molecules are shown by their SMILES. Calls of active or inactive are those of the source. The rule behind the calls is not given here.

Test [1] deals with Caenorhabditis elegans. Nature of the test: Reduction in resistance to H2O2-induced oxidative stress in wild type Caenorhabditis elegans N2 assessed as survival at 250 nM incubated 1 hr prior to H2O2 challenge relative to control. Type of test: functional, organism-based.
The nature of test [2]: (§1) Transactivation of Caenorhabditis elegans DAF-12 receptor LBD transfected in HEK293 cells co-expressing Gal4-DBD after 20 hrs by luciferase reporter gene assay. Type of test: cell-based. As to conditions: HEK293, 20 h. For orientation: Reporter assays use an easily measured gene product as a stand-in for the process of interest.
The subject of another test is HEK293. The description is as §1. Type of test: cell-based.
Test [3] deals with Caenorhabditis elegans. Nature of the test: Activation of DAF-12 receptor in Caenorhabditis elegans RG1228 harboring daf-9(rh50) mutant assessed as mig phenotype rescue at 250 nM after 3 days.
Test [4] deals with Caenorhabditis elegans. Description: Reduction in resistance to H2O2-induced oxidative stress in Caenorhabditis elegans RG1228 harboring daf-9(rh50) mutant assessed as survival at 250 nM incubated 1 hr prior to H2O2 challenge. Type of test: functional, organism-based.

Usually EC50 stands for the concentration at which the effect is half-maximal. Higher therefore signals lower potency in that assay. Turning to `C[C@H](CCCCC(=O)O)[C@H]1CC[C@H]2[C@@H]3CCC4=CC(=O)CC[C@]4(C)[C@H]3CC[C@]12C`, the result in the test with Caenorhabditis elegans [1], in the test on Caenorhabditis elegans [3] and in the test on Caenorhabditis elegans [4] was Active. In test [2], this compound displayed an EC50 of 10 µM. Also, the Activity result in the test on HEK293 is “Dose-dependent effect”.

(Values after ChEMBL document CHEMBL2384947, “27-Nor-Δ(4)-dafachronic acid is a synthetic ligand of Caenorhabditis elegans DAF-12 receptor” (Bioorg Med Chem Lett, 2013).)
